PubChem BioAssay AID256 (DTP/NCI, 2004)
Inconclusive results and toxic doses are left out. Rule for the calls: active = survival T/C of 150% or more; inactive = T/C below 125% in these data.

Test system: CD2F1 mice, L1210 leukemia ip, survival T/C
Assay: NCI In Vivo Anticancer Drug Screen. Data for tumor model L1210 Leukemia (intraperitoneal) in CD2F1 (CDF1) mice
Conditions: higher = longer survival
Method in brief: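 Compound-dosed mice with transplantable tumor versus matched vehicle controls; endpoint ratio T/C reported.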

[1] = endpoint: mean survival time, dose: 200.0 mg/kg/injection, schedule: Q01DX009 (ip), vehicle: saline with Tween-80
[2] = endpoint: mean survival time, dose: 100.0 mg/kg/injection, schedule: Q04DX003 (ip), vehicle: saline with Tween-80
[3] = endpoint: mean survival time, dose: 200.0 mg/kg/injection, schedule: Q04DX003 (ip), vehicle: saline with Tween-80
[4] = endpoint: mean survival time, dose: 400.0 mg/kg/injection, schedule: Q04DX003 (ip), vehicle: saline with Tween-80
[5] = endpoint: mean survival time, dose: 50.0 mg/kg/injection, schedule: Q01DX009 (ip), vehicle: saline with Tween-80
[6] = endpoint: mean survival time, dose: 100.0 mg/kg/injection, schedule: Q01DX009 (ip), vehicle: saline with Tween-80
[7] = endpoint: mean survival time, dose: 100.0 mg/kg/injection, schedule: Q01DX001 (ip), vehicle: saline with Tween-80
[8] = endpoint: mean survival time, dose: 100.0 mg/kg/injection, schedule: Q04DX003 (ip), vehicle: saline
[9] = endpoint: mean survival time, dose: 200.0 mg/kg/injection, schedule: Q04DX003 (ip), vehicle: saline

Measured: T/C

COc1ccc(NC(=O)Oc2cc(C)c(Cl)cc2C(C)C)c(Cl)c1
inactive: endpoint: mean survival time, dose: 50.0 mg/kg/injection, schedule: Q01DX009 (ip), vehicle: Klucel (hydroxypropylcellulose) (HPC) 100 % of control | endpoint: mean survival time, dose: 100.0 mg/kg/injection, schedule: Q01DX009 (ip), vehicle: Klucel (hydroxypropylcellulose) (HPC) 96 % of control | endpoint: mean survival time, dose: 100.0 mg/kg/injection, schedule: Q04DX003 (ip), vehicle: Klucel (hydroxypropylcellulose) (HPC) 98 % of control | endpoint: mean survival time, dose: 200.0 mg/kg/injection, schedule: Q01DX009 (ip), vehicle: Klucel (hydroxypropylcellulose) (HPC) 96 % of control | endpoint: mean survival time, dose: 200.0 mg/kg/injection, schedule: Q04DX003 (ip), vehicle: Klucel (hydroxypropylcellulose) (HPC) 98 % of control | endpoint: mean survival time, dose: 400.0 mg/kg/injection, schedule: Q04DX003 (ip), vehicle: Klucel (hydroxypropylcellulose) (HPC) 100 % of control

Cc1cc(C(O)CNCCn2cnc3c2c(=O)n(C)c(=O)n3C)ccc1O (stereo unspecified)
inactive: endpoint: mean survival time, dose: 12.5 mg/kg/injection, schedule: Q01DX005 (ip), vehicle: water 103 % of control | endpoint: mean survival time, dose: 25.0 mg/kg/injection, schedule: Q01DX005 (ip), vehicle: water 100 % of control | endpoint: mean survival time, dose: 50.0 mg/kg/injection, schedule: Q01DX005 (ip), vehicle: water 97 % of control | endpoint: mean survival time, dose: 100.0 mg/kg/injection, schedule: Q01DX005 (ip), vehicle: water 100 % of control | endpoint: mean survival time, dose: 200.0 mg/kg/injection, schedule: Q01DX005 (ip), vehicle: water 100 % of control

CN=NC(C)C
inactive: [1] 113 % of control

NNC(=S)S
inactive: endpoint: mean survival time, dose: 5.0 mg/kg/injection, schedule: Q01DX001 (ip), vehicle: saline 96 % of control | endpoint: mean survival time, dose: 10.0 mg/kg/injection, schedule: Q01DX001 (ip), vehicle: saline 98 % of control

CC(=O)Nc1ccccc1C
inactive: [2] 97 % of control | [3] 97 % of control | [4] 99 % of control

COc1cc(C(=O)C[n+]2ccccc2)ccc1O
inactive: [5] 103 % of control | [6] 87 % of control | [1] 96 % of control

O=S(=O)(/C=C/S(=O)(=O)c1ccccc1)c1ccccc1
inactive: endpoint: mean survival time, dose: 62.5 mg/kg/injection, schedule: Q01DX009 (ip), vehicle: Klucel (hydroxypropylcellulose) (HPC) 97 % of control | endpoint: mean survival time, dose: 125.0 mg/kg/injection, schedule: Q01DX009 (ip), vehicle: Klucel (hydroxypropylcellulose) (HPC) 98 % of control

O=C1OC(=O)C2=C1C1C3C=CCC3C2N2C=CC=CC12 (stereo unspecified)
inactive: endpoint: mean survival time, dose: 100.0 mg/kg/injection, schedule: Q01DX001 (ip), vehicle: Klucel (hydroxypropylcellulose) (HPC) 105 % of control | endpoint: mean survival time, dose: 200.0 mg/kg/injection, schedule: Q01DX001 (ip), vehicle: Klucel (hydroxypropylcellulose) (HPC) 93 % of control

CC(=O)Oc1cccc(C#N)c1
inactive: [6] 100 % of control | [1] 100 % of control | endpoint: mean survival time, dose: 400.0 mg/kg/injection, schedule: Q01DX009 (ip), vehicle: saline with Tween-80 96 % of control

CC(=O)OCC1OC(c2cccc3c2c2ccccc2n3S(=O)(=O)c2ccccc2)C(O)C1O (stereo unspecified)
inactive: endpoint: median survival time, dose: 12.5 mg/kg/injection, schedule: Q01DX005 (ip), vehicle: saline with Tween-80 110 % of control | endpoint: median survival time, dose: 25.0 mg/kg/injection, schedule: Q01DX005 (ip), vehicle: saline with Tween-80 107 % of control | endpoint: median survival time, dose: 50.0 mg/kg/injection, schedule: Q01DX005 (ip), vehicle: saline with Tween-80 96 % of control | endpoint: median survival time, dose: 100.0 mg/kg/injection, schedule: Q01DX005 (ip), vehicle: saline with Tween-80 98 % of control | endpoint: median survival time, dose: 200.0 mg/kg/injection, schedule: Q01DX005 (ip), vehicle: saline with Tween-80 98 % of control

O=C1C(n2ccc(=O)n(C(=O)c3ccccc3)c2=O)CCN1CCO (stereo unspecified)
inactive: endpoint: mean survival time, dose: 100.0 mg/kg/injection, schedule: Q01DX001 (ip), vehicle: saline 102 % of control | endpoint: mean survival time, dose: 200.0 mg/kg/injection, schedule: Q01DX001 (ip), vehicle: saline 100 % of control | endpoint: mean survival time, dose: 400.0 mg/kg/injection, schedule: Q01DX001 (ip), vehicle: saline 102 % of control

CC1(C)Oc2ccccc2O1
inactive: endpoint: mean survival time, dose: 25.0 mg/kg/injection, schedule: Q01DX009 (ip), vehicle: saline with Tween-80 106 % of control | [5] 102 % of control | [6] 93 % of control

O=C(O)Cc1ccccc1[N+](=O)[O-]
inactive: [7] 106 % of control | endpoint: mean survival time, dose: 200.0 mg/kg/injection, schedule: Q01DX001 (ip), vehicle: saline with Tween-80 101 % of control | endpoint: mean survival time, dose: 400.0 mg/kg/injection, schedule: Q01DX001 (ip), vehicle: saline with Tween-80 101 % of control

Cc1cc(C)cc(C(C)(C)C)c1
inactive: [6] 96 % of control | [1] 102 % of control

NC(=S)NC(=S)Nc1ccc(Cl)cc1
inactive: endpoint: mean survival time, dose: 25.0 mg/kg/injection, schedule: Q04DX002 (ip), vehicle: saline with Tween-80 98 % of control | endpoint: mean survival time, dose: 50.0 mg/kg/injection, schedule: Q04DX002 (ip), vehicle: saline with Tween-80 98 % of control | endpoint: mean survival time, dose: 100.0 mg/kg/injection, schedule: Q04DX002 (ip), vehicle: saline with Tween-80 98 % of control

O=c1sc2ccccc2n1CCSCCn1c(=S)sc2ccccc21
inactive: [8] 93 % of control | [9] 96 % of control | endpoint: mean survival time, dose: 400.0 mg/kg/injection, schedule: Q04DX003 (ip), vehicle: saline 96 % of control

COc1ccc(-n2cnc3c(=O)[nH]c(N)nc32)cc1
inactive: endpoint: mean survival time, dose: 25.0 mg/kg/injection, schedule: Q01DX001 (ip), vehicle: saline with Tween-80 95 % of control | endpoint: mean survival time, dose: 50.0 mg/kg/injection, schedule: Q01DX001 (ip), vehicle: saline with Tween-80 92 % of control | [7] 95 % of control

CC(C)(C)c1ccc(O)cc1
inactive: [2] 94 % of control | [3] 95 % of control | [4] 88 % of control

C[As](C)SCC1OC(n2ccc(=O)[nH]c2=O)CC1O (stereo unspecified)
inactive: endpoint: median survival time, dose: 12.5 mg/kg/injection, schedule: Q01DX005 (ip), vehicle: distilled water + Tween-80 97 % of control | endpoint: median survival time, dose: 25.0 mg/kg/injection, schedule: Q01DX005 (ip), vehicle: distilled water + Tween-80 104 % of control | endpoint: median survival time, dose: 50.0 mg/kg/injection, schedule: Q01DX005 (ip), vehicle: distilled water + Tween-80 106 % of control | endpoint: median survival time, dose: 100.0 mg/kg/injection, schedule: Q01DX005 (ip), vehicle: distilled water + Tween-80 109 % of control

CC(C)(C(=O)O)C(=O)O
inactive: endpoint: mean survival time, dose: 50.0 mg/kg/injection, schedule: Q04DX003 (ip), vehicle: saline 97 % of control | [8] 94 % of control | [9] 100 % of control

Clc1ccc(C2c3ccccc3C[n+]3ccccc32)cc1 (stereo unspecified)
inactive: endpoint: mean survival time, dose: 12.5 mg/kg/injection, schedule: Q04DX003 (ip), vehicle: Klucel (hydroxypropylcellulose) (HPC) 93 % of control | endpoint: mean survival time, dose: 25.0 mg/kg/injection, schedule: Q04DX003 (ip), vehicle: Klucel (hydroxypropylcellulose) (HPC) 93 % of control

O=S1(=O)OCCCC1=C(c1ccccc1)c1ccccc1
inactive: endpoint: mean survival time, dose: 75.0 mg/kg/injection, schedule: Q01DX009 (ip), vehicle: saline 102 % of control | endpoint: mean survival time, dose: 75.0 mg/kg/injection, schedule: Q04DX003 (ip), vehicle: saline 101 % of control | endpoint: mean survival time, dose: 150.0 mg/kg/injection, schedule: Q01DX009 (ip), vehicle: saline 97 % of control | endpoint: mean survival time, dose: 150.0 mg/kg/injection, schedule: Q04DX003 (ip), vehicle: saline 94 % of control | endpoint: mean survival time, dose: 300.0 mg/kg/injection, schedule: Q01DX009 (ip), vehicle: saline 97 % of control | endpoint: mean survival time, dose: 300.0 mg/kg/injection, schedule: Q04DX003 (ip), vehicle: saline 97 % of control

Nc1ccn(C2CC3OCC3O2)c(=O)n1 (stereo unspecified)
inactive: endpoint: median survival time, dose: 12.5 mg/kg/injection, schedule: Q01DX005 (ip), vehicle: saline 97 % of control | endpoint: median survival time, dose: 25.0 mg/kg/injection, schedule: Q01DX005 (ip), vehicle: saline 105 % of control | endpoint: median survival time, dose: 50.0 mg/kg/injection, schedule: Q01DX005 (ip), vehicle: saline 103 % of control | endpoint: median survival time, dose: 100.0 mg/kg/injection, schedule: Q01DX005 (ip), vehicle: saline 110 % of control | endpoint: median survival time, dose: 200.0 mg/kg/injection, schedule: Q01DX005 (ip), vehicle: saline 104 % of control

Nc1ccc(S(=O)(=O)Nc2ccccc2C(=O)O)cc1
inactive: endpoint: mean survival time, dose: 37.5 mg/kg/injection, schedule: Q01DX001 (ip), vehicle: saline with Tween-80 102 % of control | endpoint: mean survival time, dose: 75.0 mg/kg/injection, schedule: Q01DX001 (ip), vehicle: saline with Tween-80 101 % of control | endpoint: mean survival time, dose: 150.0 mg/kg/injection, schedule: Q01DX001 (ip), vehicle: saline with Tween-80 95 % of control

C=CCC(O)CCCC (stereo unspecified)
inactive: [5] 103 % of control | [6] 103 % of control | [1] 103 % of control
